Results from publication PMC12040169 (PLOS Biology, 2025).

Assay: in vitro
Settings: human, hela cells, % viability

Row | Structure (SMILES) | viability at 28.5 h, 10 µM
1 | COc1ccc(OC)c([C@@H]2CN(Cc3ccccc3)C[C@H]2NC(=O)c2ccco2)c1 [CBK286479] | 96.3%
2 | CCC(=O)N1CCCc2cc(C(O)CN3CCN(c4ccc(F)cc4)CC3)ccc21 (stereo not shown) [CBK286480] | 95.3%
3 | CC(=O)N1CCCc2cc(C(O)CN3CCC(O)(c4ccc(F)cc4)CC3)ccc21 (stereo not shown) [CBK286481] | 88.1%
4 | COc1ccccc1C1(O)CCN(CC(O)c2ccc3c(c2)OCCO3)CC1 (stereo not shown) [CBK286482] | 90.1%
5 | COc1ccc(CN(Cc2ccccc2OC)[C@@H]2COC[C@H]2c2ccc(F)cc2)cc1 [CBK286484] | 105%
6 | COc1ccc(CN(Cc2ccsc2)[C@@H]2COC[C@H]2c2ccc(F)cc2)cc1 [CBK286485] | 112%
7 | CN(Cc1ccccc1)C(=O)c1c[nH]nc1C1CCCN(CC2CCCCC2)C1 (stereo not shown) [CBK286489] | 94.4%
8 | CN(Cc1ccccc1)C(=O)c1c[nH]nc1C1CCCN(Cc2cccc(Cl)c2)C1 (stereo not shown) [CBK286490] | 91%
9 | CN(C(=O)c1c[nH]nc1C1CCCN(Cc2cc3ccccc3o2)C1)C1CCCCC1 (stereo not shown) [CBK286492] | 102%
10 | O=C(CC1CCN(Cc2cccc(C(F)(F)F)c2)CC1)N(Cc1ccccn1)C1CC1 [CBK286494] | 101%
11 | Cc1cc(C)nc(Nc2cccc(C3CCCN3C(=O)CCOc3ccccc3C)n2)n1 (stereo not shown) [CBK286496] | 90.7%
12 | Cc1nc(C2(O)CCCN(C3CCCCC3)CC2)sc1COc1ccc(F)c(F)c1 (stereo not shown) [CBK286499] | 86.4%
13 | COc1ccc(CC(=O)N2CCC(c3cccc(Cc4cccc(F)c4)n3)CC2)cc1 [CBK286504] | 100%
14 | O=C(CCc1ccc(F)cc1)N1CCCC(c2cccc(Cc3ccccc3F)n2)C1 (stereo not shown) [CBK286512] | 91.2%
15 | COc1ccccc1-c1ccc(CC2(C(=O)NC3CCCCC3)CCOCC2)cc1 [CBK286515] | 98.4%
16 | COc1ccccc1-c1ccc(CC2(C(=O)NCC3CCCCC3)CCOCC2)cc1 [CBK286519] | 98.5%
17 | COc1ccccc1-c1ccc(CC2(C(=O)NCCc3ccc(F)cc3)CCOCC2)cc1 [CBK286520] | 94.4%
18 | CCC(CO)NC(=O)C1(Cc2ccc(-c3cc(C)cc(C)c3)cc2)CCOCC1 (stereo not shown) [CBK286522] | 90.8%
19 | Cc1cc(C)cc(-c2ccc(CC3(C(=O)NCC4CCCOC4)CCOCC3)cc2)c1 (stereo not shown) [CBK286524] | 96.5%
20 | CC(C)C(CO)NC(=O)C1(Cc2ccc(-c3ccc(F)c(F)c3)cc2)CCOCC1 (stereo not shown) [CBK286525] | 87.7%
21 | COc1ccccc1-c1ccc(NC(=O)CCc2ccc3c(c2)n(C)c(=O)n3C)cc1 [CBK286527] | 93.1%
22 | Cc1ccc(C2CCCN2C(=O)c2cccn(CC(=O)Nc3ccc(F)cc3)c2=O)cc1C (stereo not shown) [CBK286528] | 90.1%

Row | Structure (SMILES) | viability at 28.5 h, 10 µM
23 | O=C(Cc1ccccc1)N(Cc1ccco1)C1CCN(c2ccc3c(c2)OCCO3)CC1 [CBK286529] | 106%
24 | N=c1n(CC(=O)O)c2ccccc2n1Cc1ccccc1 [CBK286531] | 108%
25 | CC(C)C(C(=O)O)N1C(=O)C2C3C=CC(C3)C2C1=O (stereo not shown) [CBK286535] | 84%
26 | CCCCC(C(=O)O)N1C(=O)C2CC=C(Cl)CC2C1=O (stereo not shown) [CBK286536] | 91.4%
27 | Cn1c(=O)n(C)c2cc(CNCc3ccc(C(=O)O)cc3)ccc21 [CBK286538] | 95.8%
28 | O=C(O)CC1C(=O)NCCN1CC(c1ccccc1)c1ccccc1 (stereo not shown) [CBK286539] | 77.5%
29 | O=C(O)CCSc1nnc(-c2cccc(Br)c2)o1 [CBK286540] | 82.8%
30 | Nc1cccc(S(=O)(=O)N2CCC(C(=O)O)CC2)c1 [CBK286541] | 88.2%
31 | O=C(O)C1Nc2ccc(Oc3ccccc3)cc2C2C=CCC12 (stereo not shown) [CBK286542] | 80.8%
32 | O=C(O)c1cn(CCN2C(=O)c3ccccc3C2=O)nn1 [CBK286543] | 91%
33 | CC(C)C(=O)Nc1ccc2c(c1)C(=O)N(CCC(=O)O)C2=O [CBK286544] | 86.1%
34 | Cc1n[nH]c2c1C(c1ccc(C(=O)O)cc1)C1=C(COC1=O)N2 (stereo not shown) [CBK286546] | 94.7%
35 | O=C(O)/C=C/c1ccc(CNS(=O)(=O)c2ccccc2)o1 [CBK286549] | 86%
36 | O=C(O)CNC(=O)CNC(=O)Cn1c(-c2ccccc2)cc2ccccc21 [CBK286550] | 89.1%
37 | O=C(O)CN1C(=O)C(=O)/C(=C(O)\C=C\c2ccccc2)C1c1ccccc1 (stereo not shown) [CBK286551] | 86.8%
38 | CSCCC(NC(=O)C1CCC(C)CC1)C(=O)O (stereo not shown) [CBK286552] | 87.5%
39 | O=C(O)CCNC(=O)c1ccc(C#CC2(O)CCCCC2)cc1 [CBK286554] | 93.2%
40 | Cn1cc(C2c3ccccc3C(=O)N2CC(=O)O)c2ccccc21 (stereo not shown) [CBK286555] | 90.2%
41 | O=C(O)c1ccccc1NC1CC(=O)N(C2CCCCC2)C1 (stereo not shown) [CBK286556] | 91.3%
42 | Cn1nc(CC(=O)Nc2ccccc2C(=O)O)c2ccccc2c1=O [CBK286558] | 88.9%
43 | Cc1nn(-c2ccc(F)cc2)c2c1C(c1ccc(C(=O)O)cc1)CC(=O)N2 (stereo not shown) [CBK286561] | 101%
44 | O=C(O)/C=C\C(=O)N(C1CCCCC1)C1CCCCC1 [CBK286562] | 92%

Row | Structure (SMILES) | viability at 28.5 h, 10 µM
45 | Cc1ccc(NC(=O)/C=C/C(=O)O)c(NC(=O)c2ccccc2)c1 [CBK286563] | 97.3%
46 | CC1=C(C)CC(C(=O)Nc2ccc(C(=O)NCc3cccnc3)cc2)C(C(=O)O)C1 (stereo not shown) [CBK286567] | 78.8%
47 | Cc1ccc(Oc2ccc(C(=O)NCC(=O)O)cc2)cc1C [CBK286570] | 84.5%
48 | Cc1cc2oc(=O)cc(C)c2cc1NC(=O)c1ccccc1C(=O)O [CBK286572] | 92.1%
49 | NC(=O)C1(N2CCCCC2)CCN(C(=O)CCCC(=O)O)CC1 [CBK286575] | 84.2%
50 | CC(C(=O)O)N1C(=O)c2ccccc2C1c1c[nH]c2ccccc12 (stereo not shown) [CBK286576] | 106%
51 | CC1CN(C(=O)c2ccccc2-c2ccccc2C(=O)O)CC(C)O1 (stereo not shown) [CBK286577] | 87.7%
52 | N#Cc1ccc(Oc2ccc(C(=O)NCC(=O)O)cc2)cc1 [CBK286579] | 90.1%
53 | O=C(O)CNC(=O)CCS(=O)(=O)c1ccc(F)cc1 [CBK286580] | 86.1%
54 | CC(C)(CN1C(=O)c2ccccc2C1=O)C(O)C(=O)O (stereo not shown) [CBK286582] | 82.3%
55 | Cc1ccc(S(=O)(=O)N2c3ccc(C(=O)O)cc3CC2C)cc1 (stereo not shown) [CBK286584] | 82.6%
56 | COc1ccc(NC(=O)CCC(=O)N2CCC(C(=O)O)CC2)cc1 [CBK286588] | 100%
57 | CC(C)C[C@H](NC(=O)N1CC(=O)Nc2ccccc21)C(=O)O [CBK286589] | 94.8%
58 | Cc1c(C(=O)O)sc2c1c(=O)n(Cc1ccccc1)c(=O)n2CCN(C)C [CBK286590] | 95.3%
59 | O=C(O)C1Cc2ccccc2C(=O)N1CCc1ccccc1 (stereo not shown) [CBK286592] | 87.4%
60 | O=C(O)C1CCCCC1C(=O)N1CCc2ccccc2C1 (stereo not shown) [CBK286594] | 85%
61 | O=C(O)c1cc(S(=O)(=O)N2CCCCC2)ccc1O [CBK286595] | 89.6%
62 | CCCCN(Cc1ccccc1)C(=O)[C@H]1CCCC[C@H]1C(=O)O [CBK286596] | 85.3%
63 | CC1(C)CC(=O)C2=C(C1)Nc1ccccc1N(CC(=O)O)C2c1cccs1 (stereo not shown) [CBK286597] | 83.6%
64 | O=C(O)CC(CNC(=O)Cc1c[nH]c2ccccc12)c1ccc(Cl)cc1 (stereo not shown) [CBK286598] | 91.7%
65 | COCc1cc(C)nc2c1C(=O)NC(c1ccccc1C(=O)O)N2Cc1ccccc1 (stereo not shown) [CBK286599] | 92.3%
66 | CC(=O)Nc1ccc(CC(C(=O)O)c2ccccc2)cc1 (stereo not shown) [CBK286600] | 98.8%

Row | Structure (SMILES) | viability at 28.5 h, 10 µM
67 | O=C(O)c1ccccc1-c1ccccc1C(=O)Nc1ccc(O)cc1 [CBK286602] | 85.1%
68 | O=C(O)C1CC=CCC1C(=O)c1c[nH]c2ccccc12 (stereo not shown) [CBK286603] | 90.7%
69 | CC(C)[C@H](NC(=O)Cc1n[nH]c(=O)c2ccccc12)C(=O)O [CBK286607] | 95.2%
70 | O=C(O)C[C@]1(C(=O)Nc2ccc(F)cc2)CC(/C=C/c2ccccc2)=NO1 [CBK286608] | 87.3%
71 | CC(C)(CO)C(O)C(=O)NC1CCCC(C(=O)O)C1 (stereo not shown) [CBK286609] | 96%
72 | O=C(O)CCC(=O)Nc1ccc2c(c1)Cc1ccccc1-2 [CBK286611] | 94.9%
73 | O=C(O)c1ccc(NC(=O)c2cc(-n3cnnc3)ccc2Cl)cc1 [CBK286613] | 111%
74 | Cc1nc(=O)c(-c2ccccc2)c(C)n1-c1ccc(OCC(=O)O)cc1 [CBK286615] | 106%
75 | O=C(O)c1ccc(OCC(O)Cn2nnc3ccccc32)cc1 (stereo not shown) [CBK286616] | 103%
76 | CC1CN(C(=O)/C=C/C(=O)O)c2ccccc2NC1=O (stereo not shown) [CBK286618] | 108%
77 | CC(C)C[C@H](NC(=O)NCCN1CCOCC1)C(=O)O [CBK286619] | 99.4%
78 | O=C(CC(C(=O)O)c1c[nH]c2ccccc12)c1ccc(Cl)cc1 (stereo not shown) [CBK286620] | 86.7%
79 | O=C(O)c1nccnc1C(=O)N1CCC(O)(c2ccc(Cl)cc2)CC1 [CBK286621] | 87.6%
80 | CC(=O)Nc1cc(NC(C)=O)c(C)c(C(=O)O)c1 [CBK286623] | 88.6%
81 | O=C(O)C(c1c[nH]c2ccccc12)N1CCN(Cc2ccncc2)CC1 (stereo not shown) [CBK286624] | 76.2%
82 | O=C(O)C1Cc2ccccc2CN1C(=O)c1ccccc1 (stereo not shown) [CBK286628] | 102%
83 | O=C(O)c1ccc2c(c1)c(C(C(=O)O)N1CCCC1)cn2Cc1ccccc1 (stereo not shown) [CBK286633] | 90.1%
84 | COc1ccc(OC)c2c1cc(C(=O)NC[C@H]1CC[C@H](C(=O)O)CC1)n2C [CBK286636] | 86.1%
85 | COc1ccc2c(c1)c(C(C(=O)O)N1CCN(c3ccccn3)CC1)cn2CC(=O)O (stereo not shown) [CBK286637] | 98%
86 | O=C(O)CCNc1cc2ccccc2cc1C(=O)O [CBK286640] | 80.7%
87 | COc1cccc(C2=NO[C@@](CC(=O)O)(C(=O)NCc3ccccc3)C2)c1OC [CBK286641] | 83.4%
88 | CC(C)C(=O)Nc1ccc2[nH]cc(C(C(=O)O)N3CCN(c4ccccc4)CC3)c2c1 (stereo not shown) [CBK286645] | 85.7%
